Measured values as given in ChEMBL document CHEMBL3588818 (Eur J Med Chem, 2015).

Tests used:
[1] = Displacement of [3H]DTG from sigma2 receptor in Sprague-Dawley rat liver membranes incubated for 2 hrs in presence of dextrallorphan by liquid scintillation counting based competitive radioligand binding assay; conditions: read-out: Ki(app)
[2] = target: Sigma non-opioid intracellular receptor 1 (Rattus norvegicus, UniProt Q9R0C9); assay: Displacement of […] from sigma1 receptor in Sprague-Dawley rat cortical membranes incubated for 2 hrs by liquid scintillation counting based competitive radioligand binding assay; conditions: read-out: Ki(app)
[3] = target: T1, Vesicular acetylcholine transporter (Rattus norvegicus, UniProt Q62666); assay: Displacement of (-)-[3H]vesamicol from rat VAChT expressed in PC12 cell membranes incubated for 2 hrs by liquid scintillation counting based competitive radioligand binding assay; parameters: species or system PC-12; conditions: read-out: Ki(app)
T1 sequence (Q62666 whole entry): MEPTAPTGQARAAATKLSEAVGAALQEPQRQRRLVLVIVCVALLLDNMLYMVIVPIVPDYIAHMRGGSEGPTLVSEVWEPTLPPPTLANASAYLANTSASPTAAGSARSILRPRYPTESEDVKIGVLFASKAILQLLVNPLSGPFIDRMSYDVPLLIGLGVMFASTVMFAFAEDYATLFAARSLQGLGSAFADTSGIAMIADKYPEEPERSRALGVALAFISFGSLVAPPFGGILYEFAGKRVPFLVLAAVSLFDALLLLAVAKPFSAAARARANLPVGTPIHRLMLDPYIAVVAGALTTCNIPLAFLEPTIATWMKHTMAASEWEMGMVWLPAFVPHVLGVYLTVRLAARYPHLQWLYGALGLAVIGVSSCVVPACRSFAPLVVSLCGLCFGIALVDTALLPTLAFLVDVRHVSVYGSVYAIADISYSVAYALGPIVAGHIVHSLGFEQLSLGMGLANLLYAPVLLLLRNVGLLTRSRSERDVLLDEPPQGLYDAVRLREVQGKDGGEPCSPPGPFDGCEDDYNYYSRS

PC-12 [4] = assay: Selectivity index, ratio of Ki for sigma2 receptor in Sprague-Dawley rat liver membranes to Ki for rat VAChT expressed in PC12 cell membranes; type: cell-based
PC-12 [5] = assay: Selectivity index, ratio of Ki for sigma1 receptor in Sprague-Dawley rat cortical membranes to Ki for rat VAChT expressed in PC12 cell membranes; type: cell-based

Sigma non-opioid intracellular receptor 1, sequence (Q9R0C9 whole entry): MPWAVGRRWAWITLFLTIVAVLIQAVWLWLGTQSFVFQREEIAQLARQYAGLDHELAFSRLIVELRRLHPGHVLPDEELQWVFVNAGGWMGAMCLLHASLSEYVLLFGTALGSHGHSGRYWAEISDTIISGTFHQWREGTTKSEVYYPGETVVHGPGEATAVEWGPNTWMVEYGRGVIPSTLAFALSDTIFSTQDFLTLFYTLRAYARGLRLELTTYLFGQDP

Compound | Ki [1] [µM] | Ki [2] [µM] | Ki [3] [µM] | Ratio Ki (PC-12 [4]) | Ratio Ki (PC-12 [5])
O[C@@H]1C[C@@H](OCc2ccc(F)cc2)CC[C@H]1N1CCC(O)(c2ccccc2)CC1 (racemic) | 0.254 | 0.031 | > 10 | – | –
CC(=O)C1(c2ccccc2)CCN([C@@H]2CC[C@H](OCc3ccc(F)cc3)C[C@H]2O)CC1 (racemic) | 0.103 | 0.12 | > 10 | – | –
O[C@@H]1C[C@@H](OCc2ccc(F)cc2)CC[C@H]1N1CCc2ccccc2C1 (racemic) | 0.0456 | 0.0231 | > 10 | – | –
O[C@@H]1C[C@@H](OCc2ccc(F)cc2)CC[C@H]1N1CCC(N2CCCCC2)CC1 (racemic) | 0.374 | 0.3 | > 10 | – | –
O[C@@H]1C[C@@H](OCc2ccc(F)cc2)CC[C@H]1N1CCC(c2ccncc2)CC1 (racemic) | 0.164 | 0.0411 | > 10 | – | –
O[C@@H]1CC[C@@H](OCCCF)C[C@H]1N1CCC(c2ccccc2)CC1 (racemic) | 0.0882 | 0.0259 | 0.0478 | 1.8 | 0.5
O[C@@H]1C[C@@H](OCCCF)CC[C@H]1N1CCC(c2ccccc2)CC1 (racemic) | 0.717 | 0.0976 | 0.0596 | 12 | 1.6
O[C@@H]1Cc2ccccc2C[C@H]1N1CCN(c2ccccc2)CC1 (racemic) | 1.28 | 0.466 | 0.056 | 22.7 | 8.3
O[C@@H]1Cc2ccccc2C[C@H]1N1CC=C(c2ccccc2)CC1 (racemic) | 0.166 | 0.024 | – | – | –
O[C@@H]1Cc2ccccc2C[C@H]1N1CCC(O)(c2ccccc2)CC1 (racemic) | 0.549 | 0.067 | 0.0115 | 47.7 | 5.8
O[C@@H]1Cc2ccccc2C[C@H]1N1CCC(Cc2ccccc2)CC1 (racemic) | 0.06 | 0.065 | 0.0232 | 2.6 | 2.8
O[C@@H]1Cc2ccccc2C[C@H]1N1CCC(N2CCCCC2)CC1 (racemic) | 0.161 | 0.248 | 0.112 | 1.4 | 2.2
O[C@@H]1Cc2ccccc2C[C@H]1N1CCC(c2ccncc2)CC1 (racemic) | 0.258 | 0.0089 | 0.0193 | 13.4 | 0.5
Nc1cccc2c1C[C@@H](O)[C@H](N1CCC(c3ccccc3)CC1)C2 (racemic) | 0.726 | 0.0553 | 0.339 | 2.1 | 0.2
O=C(Nc1cccc2c1C[C@@H](O)[C@H](N1CCC(Cc3ccccc3)CC1)C2)c1ccc(F)cc1 (racemic) | 2.11 | 0.296 | > 10 | – | –
O[C@@H]1CCCC[C@H]1N1CCc2ccccc2C1 (racemic) | 0.809 | 0.0543 | – | – | –
O[C@@H]1CCCC[C@H]1N1CCC(N2CCCCC2)CC1 (racemic) | 4.71 | > 1 | 5.11 | – | –
O[C@@H]1CCCC[C@H]1N1CCC(c2ccncc2)CC1 (racemic) | 3.32 | > 1 | 3.38 | – | –
CCN(CCCc1ccccc1)[C@@H]1C[C@H](OCc2ccc(F)cc2)CC[C@H]1O (racemic) | 0.109 | 0.0105 | 1.61 | < 0.1 | –
CCN(CCCc1ccccc1)[C@@H]1CCCC[C@H]1O (racemic) | 0.652 | 0.115 | > 10 | – | –
O[C@@H]1Cc2cccc(OCCF)c2C[C@H]1N1CCC(c2ccccc2)CC1 (racemic) | – | – | – | – | 10.7
O[C@@H]1Cc2ccccc2C[C@H]1N1CCC(c2ccccc2)CC1 (racemic) [BENZOVESAMICOL] | 0.0964 | 0.0261 | – | – | –
O[C@@H]1CCCC[C@H]1N1CCC(c2ccccc2)CC1 (racemic) [VESAMICOL] | 0.112 | – | – | – | –
